According to ChEMBL document CHEMBL1909046, “DrugMatrix in vitro pharmacology data”:
pIC50, pKi: −log10 of the molar value.

Assays:
[1] = molecular target: Acetylcholinesterase (Homo sapiens, UniProt P22303); experiment: DRUGMATRIX: Acetylcholinesterase enzyme inhibition (substrate: acetylthiocholine); assay type: cell-based, HEK293; conditions: hek293; Not Active = under 50% inhibition at 10 µM
[2] = molecular target: Adenosine receptor A2a (Homo sapiens, UniProt P29274); experiment: DRUGMATRIX: Adenosine A2A radioligand binding (ligand: […]); assay type: cell membranes, HEK293, Membrane; conditions: hek293; Not Active = under 50% inhibition at 10 µM
Sequence of Adenosine receptor A2a (P29274 whole entry): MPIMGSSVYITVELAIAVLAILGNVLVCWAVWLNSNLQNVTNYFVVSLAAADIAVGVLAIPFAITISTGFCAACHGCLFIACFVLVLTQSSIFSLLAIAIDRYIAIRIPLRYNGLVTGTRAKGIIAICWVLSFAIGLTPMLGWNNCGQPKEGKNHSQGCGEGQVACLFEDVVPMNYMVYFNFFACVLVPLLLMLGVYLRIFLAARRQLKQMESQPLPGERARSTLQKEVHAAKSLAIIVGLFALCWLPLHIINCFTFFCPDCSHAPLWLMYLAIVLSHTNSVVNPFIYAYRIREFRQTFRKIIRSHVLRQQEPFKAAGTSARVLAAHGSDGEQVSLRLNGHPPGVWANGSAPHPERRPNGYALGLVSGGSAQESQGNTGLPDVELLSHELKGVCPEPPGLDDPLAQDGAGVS

[3] = molecular target: T1, Progesterone receptor (Bos taurus, UniProt Q690N0); experiment: DRUGMATRIX: Progesterone radioligand binding (ligand: [3H] R-5020); assay type: tissue-based, Uterus; conditions: Not Active = under 50% inhibition at 10 µM
T1 sequence (Q690N0 whole entry): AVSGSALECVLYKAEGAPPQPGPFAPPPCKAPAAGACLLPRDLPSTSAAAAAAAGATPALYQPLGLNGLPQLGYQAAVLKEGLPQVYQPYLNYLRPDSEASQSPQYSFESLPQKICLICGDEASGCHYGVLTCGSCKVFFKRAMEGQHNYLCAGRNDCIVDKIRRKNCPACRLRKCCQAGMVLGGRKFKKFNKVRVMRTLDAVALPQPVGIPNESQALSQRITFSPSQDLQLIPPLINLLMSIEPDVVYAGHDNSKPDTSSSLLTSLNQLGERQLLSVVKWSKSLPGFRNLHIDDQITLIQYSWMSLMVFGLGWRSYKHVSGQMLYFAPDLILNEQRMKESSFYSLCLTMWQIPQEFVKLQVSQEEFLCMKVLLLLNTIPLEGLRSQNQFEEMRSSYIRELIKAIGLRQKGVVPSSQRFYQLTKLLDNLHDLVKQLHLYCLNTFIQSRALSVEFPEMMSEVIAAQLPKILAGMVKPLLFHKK

[4] = molecular target: Protein phosphatase 3 catalytic subunit alpha (Homo sapiens, UniProt Q08209); set-up: species or system Escherichia coli;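 note: inhibition of calcineurin (PP2B) enzyme activity, measured with DiFMUP as the substrate; in other assays of this panel Not Active means under 50% inhibition at 10 µM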
[5] = molecular target: 5-hydroxytryptamine receptor 2B (Homo sapiens, UniProt P41595); assay type: cell membranes, CHO-K1, Membrane; conditions: for IC50: cho-k1; for all read-outs here: in other assays of this panel Not Active means under 50% inhibition at 10 µM
Sequence of 5-hydroxytryptamine receptor 2B (P41595 whole entry): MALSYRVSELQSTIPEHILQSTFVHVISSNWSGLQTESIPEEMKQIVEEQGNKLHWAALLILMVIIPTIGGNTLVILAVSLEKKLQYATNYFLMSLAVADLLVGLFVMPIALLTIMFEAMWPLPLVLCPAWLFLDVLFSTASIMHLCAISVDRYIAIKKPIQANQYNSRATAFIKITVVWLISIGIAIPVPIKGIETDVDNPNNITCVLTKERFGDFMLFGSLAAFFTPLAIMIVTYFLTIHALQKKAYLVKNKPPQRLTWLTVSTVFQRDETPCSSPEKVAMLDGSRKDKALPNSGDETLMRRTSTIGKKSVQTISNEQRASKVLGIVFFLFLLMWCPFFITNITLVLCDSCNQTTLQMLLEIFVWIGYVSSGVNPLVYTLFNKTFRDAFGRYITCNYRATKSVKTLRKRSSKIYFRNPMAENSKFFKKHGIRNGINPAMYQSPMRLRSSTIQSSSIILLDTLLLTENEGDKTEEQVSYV

[6] = molecular target: Platelet-activating factor receptor (Homo sapiens, UniProt P25105); experiment: biochemical; assay type: tissue-based; conditions: platelet; note: in other assays of this panel Not Active means under 50% inhibition at 10 µM
Sequence of Platelet-activating factor receptor (P25105 whole entry): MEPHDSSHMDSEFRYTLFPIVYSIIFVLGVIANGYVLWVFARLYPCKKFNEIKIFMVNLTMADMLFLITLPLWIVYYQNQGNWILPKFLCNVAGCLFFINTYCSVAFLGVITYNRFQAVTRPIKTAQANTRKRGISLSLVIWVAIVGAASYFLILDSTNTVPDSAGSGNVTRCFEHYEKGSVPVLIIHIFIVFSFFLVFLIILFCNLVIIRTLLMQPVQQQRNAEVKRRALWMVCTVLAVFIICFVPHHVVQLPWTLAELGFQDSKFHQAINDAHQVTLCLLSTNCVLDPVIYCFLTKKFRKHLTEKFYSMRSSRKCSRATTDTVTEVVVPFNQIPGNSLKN

[7] = molecular target: Sigma non-opioid intracellular receptor 1 (Homo sapiens, UniProt Q99720); experiment: DRUGMATRIX: Sigma1 radioligand binding (ligand: [3H] Haloperidol); assay type: cell membranes, Jurkat, Membrane; conditions: jurkat; Not Active = under 50% inhibition at 10 µM
Sequence of Sigma non-opioid intracellular receptor 1 (Q99720 whole entry): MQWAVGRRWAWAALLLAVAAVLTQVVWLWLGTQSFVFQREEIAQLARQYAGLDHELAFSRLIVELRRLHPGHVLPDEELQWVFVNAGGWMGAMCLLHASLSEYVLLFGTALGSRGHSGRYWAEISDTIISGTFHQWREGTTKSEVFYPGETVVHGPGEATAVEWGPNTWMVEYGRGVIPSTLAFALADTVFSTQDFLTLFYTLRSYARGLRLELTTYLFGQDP

[8] = molecular target: T2, 3-hydroxy-3-methylglutaryl-coenzyme A reductase (Homo sapiens, UniProt P04035); set-up: species or system Escherichia coli;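 note: enzyme inhibition assay of HMG-CoA reductase using radiolabeled [14C]HMG-CoA as substrate; in other assays of this panel Not Active means under 50% inhibition at 10 µM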
T2 sequence (P04035 whole entry): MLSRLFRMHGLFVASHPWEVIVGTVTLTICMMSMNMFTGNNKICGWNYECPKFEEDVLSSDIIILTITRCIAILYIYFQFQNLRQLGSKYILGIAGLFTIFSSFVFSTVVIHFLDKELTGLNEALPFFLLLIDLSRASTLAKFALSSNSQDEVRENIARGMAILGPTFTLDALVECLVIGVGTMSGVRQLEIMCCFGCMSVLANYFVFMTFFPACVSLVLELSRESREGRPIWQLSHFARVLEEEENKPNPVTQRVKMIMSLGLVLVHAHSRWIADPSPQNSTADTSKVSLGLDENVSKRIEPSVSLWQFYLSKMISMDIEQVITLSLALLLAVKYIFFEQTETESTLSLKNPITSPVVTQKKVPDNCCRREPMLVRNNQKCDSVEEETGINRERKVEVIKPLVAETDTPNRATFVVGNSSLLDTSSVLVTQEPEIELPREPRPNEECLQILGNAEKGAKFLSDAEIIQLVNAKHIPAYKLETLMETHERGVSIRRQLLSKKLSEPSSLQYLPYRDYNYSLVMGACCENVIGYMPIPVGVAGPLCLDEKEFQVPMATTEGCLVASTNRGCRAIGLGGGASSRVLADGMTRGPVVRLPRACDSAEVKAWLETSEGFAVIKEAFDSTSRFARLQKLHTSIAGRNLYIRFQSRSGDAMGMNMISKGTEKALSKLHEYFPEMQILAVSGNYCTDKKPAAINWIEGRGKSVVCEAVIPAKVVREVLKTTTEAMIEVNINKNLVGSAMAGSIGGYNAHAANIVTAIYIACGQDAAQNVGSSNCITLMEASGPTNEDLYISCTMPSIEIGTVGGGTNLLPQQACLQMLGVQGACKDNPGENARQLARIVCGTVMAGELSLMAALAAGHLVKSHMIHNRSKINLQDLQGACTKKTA

[9] = DRUGMATRIX: Phosphodiesterase PDE4 enzyme inhibition (substrate: [3H]cAMP + cAMP); conditions: u-937; Not Active = under 50% inhibition at 10 µM
[10] = DRUGMATRIX: Imidazoline I2, Central radioligand binding (ligand: [3H] Idazoxan); assay type: cell membranes, Rattus norvegicus, Wistar, Cerebral cortex, Membrane; conditions: Not Active = under 50% inhibition at 10 µM
[11] = molecular target: C-C chemokine receptor type 2 (Homo sapiens, UniProt P41597); assay type: cell membranes, CHO-K1, Membrane; conditions: cho-k1; note: in other assays of this panel Not Active means under 50% inhibition at 10 µM
Sequence of C-C chemokine receptor type 2 (P41597 whole entry): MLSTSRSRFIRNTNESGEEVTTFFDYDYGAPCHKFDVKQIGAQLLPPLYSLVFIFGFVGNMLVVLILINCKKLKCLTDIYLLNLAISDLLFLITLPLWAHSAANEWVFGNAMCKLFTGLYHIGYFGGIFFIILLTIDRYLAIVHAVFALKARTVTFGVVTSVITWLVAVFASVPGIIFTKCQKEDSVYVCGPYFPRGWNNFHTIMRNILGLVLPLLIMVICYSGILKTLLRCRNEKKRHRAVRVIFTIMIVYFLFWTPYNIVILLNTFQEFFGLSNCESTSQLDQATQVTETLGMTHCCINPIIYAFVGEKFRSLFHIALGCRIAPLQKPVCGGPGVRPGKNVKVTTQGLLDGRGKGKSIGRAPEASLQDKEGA

[12] = molecular target: T3, Neuropeptide Y receptor type 2 (Homo sapiens, UniProt P49146); assay type: cell membranes, Membrane; conditions: kan-ts; note: in other assays of this panel Not Active means under 50% inhibition at 10 µM
T3 sequence (P49146 whole entry): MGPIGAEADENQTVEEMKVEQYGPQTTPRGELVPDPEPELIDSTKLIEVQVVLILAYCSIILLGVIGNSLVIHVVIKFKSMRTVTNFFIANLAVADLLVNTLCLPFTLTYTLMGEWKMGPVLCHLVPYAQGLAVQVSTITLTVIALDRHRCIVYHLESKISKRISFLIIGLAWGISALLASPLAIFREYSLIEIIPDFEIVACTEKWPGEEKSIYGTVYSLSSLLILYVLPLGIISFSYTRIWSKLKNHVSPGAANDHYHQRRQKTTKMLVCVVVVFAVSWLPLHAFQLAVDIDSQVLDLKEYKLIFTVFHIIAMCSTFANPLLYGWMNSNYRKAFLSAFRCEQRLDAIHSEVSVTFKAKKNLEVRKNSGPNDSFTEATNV

Sequence of Acetylcholinesterase (P22303 whole entry): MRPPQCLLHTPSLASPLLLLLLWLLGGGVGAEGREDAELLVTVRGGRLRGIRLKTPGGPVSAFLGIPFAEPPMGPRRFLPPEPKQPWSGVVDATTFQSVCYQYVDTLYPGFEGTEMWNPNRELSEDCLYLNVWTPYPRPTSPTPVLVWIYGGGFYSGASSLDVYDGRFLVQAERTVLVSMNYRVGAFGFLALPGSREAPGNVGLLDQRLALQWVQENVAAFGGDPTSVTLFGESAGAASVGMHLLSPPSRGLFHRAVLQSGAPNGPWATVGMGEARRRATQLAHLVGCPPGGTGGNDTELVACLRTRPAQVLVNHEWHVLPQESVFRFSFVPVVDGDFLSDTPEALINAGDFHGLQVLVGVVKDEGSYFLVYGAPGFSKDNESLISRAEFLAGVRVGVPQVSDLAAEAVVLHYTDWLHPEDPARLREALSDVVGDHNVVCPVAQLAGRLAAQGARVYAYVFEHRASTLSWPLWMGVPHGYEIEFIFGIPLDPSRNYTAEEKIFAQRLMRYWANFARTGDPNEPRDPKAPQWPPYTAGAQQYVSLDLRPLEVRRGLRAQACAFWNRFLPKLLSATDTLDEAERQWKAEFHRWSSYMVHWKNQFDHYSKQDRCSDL

CN1C[C@H](C(=O)N[C@]2(C)O[C@@]3(O)[C@@H]4CCCN4C(=O)[C@H](Cc4ccccc4)N3C2=O)C=C2c3cccc4[nH]cc(c34)C[C@H]21 [ERGOTAMINE]
Not Active: IC50 [1] | IC50 [2] | IC50 [3] | IC50 [4] | IC50 [6] | IC50 [7] | IC50 [8] | IC50 [9] | Ki [9] | IC50 [11] | IC50 [12]
8.66: pKi ([5]; read-out: Ki)
8.46: pIC50 ([5]; read-out: IC50)
8.61: pKi ([10]; read-out: Ki)
8.44: pIC50 ([10]; read-out: IC50)

CCc1cccc2c3c([nH]c12)C(CC)(CC(=O)O)OCC3 (stereo not given) [ETODOLAC]
Not Active: IC50 [1] | IC50 [2] | IC50 [3] | IC50 [4] | IC50 [5] | IC50 [6] | IC50 [7] | IC50 [8] | IC50 [9] | Ki [9] | IC50 [10] | Ki [10] | IC50 [11] | IC50 [12]

Cc1c(-c2ccccc2)oc2c(C(=O)OCCN3CCCCC3)cccc2c1=O [FLAVOXATE]
Not Active: IC50 [1] | IC50 [2] | IC50 [3] | IC50 [4] | IC50 [5] | IC50 [6] | IC50 [7] | IC50 [8] | IC50 [9] | Ki [9] | IC50 [10] | Ki [10] | IC50 [11] | IC50 [12]

Nc1nc(=O)[nH]cc1F [FLUCYTOSINE]
Not Active: IC50 [1] | IC50 [2] | IC50 [3] | IC50 [4] | IC50 [5] | IC50 [6] | IC50 [7] | IC50 [8] | IC50 [9] | Ki [9] | IC50 [10] | Ki [10] | IC50 [11] | IC50 [12]

O=C1OC2(c3ccc(O)cc3Oc3cc(O)ccc32)c2ccccc21 [FLUORESCEIN]
Not Active: IC50 [1] | IC50 [2] | IC50 [3] | IC50 [4] | IC50 [5] | IC50 [6] | IC50 [7] | IC50 [8] | IC50 [9] | Ki [9] | IC50 [10] | Ki [10] | IC50 [11] | IC50 [12]

CC(=O)[C@@]1(O)CC[C@H]2[C@@H]3C[C@H](C)C4=CC(=O)C=C[C@]4(C)[C@@]3(F)[C@@H](O)C[C@@]21C [FLUOROMETHOLONE]
6.97: pKi ([3]; read-out: Ki)
6.09: pIC50 ([3]; read-out: IC50)
Not Active: IC50 [1] | IC50 [2] | IC50 [4] | IC50 [5] | IC50 [6] | IC50 [7] | IC50 [8] | IC50 [9] | Ki [9] | IC50 [10] | Ki [10] | IC50 [11] | IC50 [12]

O=c1[nH]cc(F)c(=O)[nH]1 [FLUOROURACIL]
Not Active: IC50 [1] | IC50 [2] | IC50 [3] | IC50 [4] | IC50 [5] | IC50 [6] | IC50 [7] | IC50 [8] | IC50 [9] | Ki [9] | IC50 [10] | Ki [10] | IC50 [11] | IC50 [12]
